According to patent US20150031655A1, “COMBINATION OF LIVER X RECEPTOR MODULATOR AND ESTROGEN RECEPTOR MODULATOR FOR THE TREATMENT OF AGE-RELATED DISEASES” (UNIVERSITY OF NORTH DAKOTA, priority 2011, published 2015):

Assays:
LXRβ [1] = target: T1, LXRβ (Homo sapiens, UniProt P55055); experiment: ChIP, LXRβ binding to the LXRE in the α-synuclein promoter; assay type: cell-based; parameters: endogenous in cells; host or cells: SH-SY5Y human neuroblastoma cells; settings: SH-SY5Y
T1 sequence (P55055 1-460): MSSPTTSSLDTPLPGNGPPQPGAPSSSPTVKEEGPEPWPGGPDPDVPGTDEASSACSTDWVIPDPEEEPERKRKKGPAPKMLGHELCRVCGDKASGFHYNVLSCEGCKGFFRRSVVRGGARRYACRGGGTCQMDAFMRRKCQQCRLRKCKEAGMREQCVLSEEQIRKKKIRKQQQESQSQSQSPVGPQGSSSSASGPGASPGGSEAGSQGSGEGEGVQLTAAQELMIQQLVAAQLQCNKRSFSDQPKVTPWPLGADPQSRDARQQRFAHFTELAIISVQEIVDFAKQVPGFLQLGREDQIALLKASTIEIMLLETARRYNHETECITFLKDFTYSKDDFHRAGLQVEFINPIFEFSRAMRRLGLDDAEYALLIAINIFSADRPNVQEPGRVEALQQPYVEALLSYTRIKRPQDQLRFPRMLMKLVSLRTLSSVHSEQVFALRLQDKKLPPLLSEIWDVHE
Description: (§1) Human neuroblastoma SH-SY5Y cells were grown in DMEM/F12 medium containing 10% fetal bovine serum (FBS) and 1% antibiotic/antimycotic mix. Cells were maintained at 37° C. in a saturated humidity atmosphere containing 95% air and 5% CO2.
ChIP analysis was performed to evaluate the extent of ERα/ERβ and LXRα/LXRβ binding to the DNA elements in the TH promoter and α-synuclein promoter regions respectively using “SimpleChIP™ Enzymatic Chromatic IP kit” from Cell Signaling (Boston, Mass.).
Briefly, cells from each treatment group (3×10^6 cells) were washed with PBS, trypsinized, centrifuged at 5000 g. The pellet containing the cells was further washed with PBS and cross-linked using 37% formaldehyde for 15 min followed by the addition of glycine solution to cease the cross-linking reaction.
The cells were washed with 4× volumes of 1×PBS and centrifuged at ˜220 g for 5 min. The pellet was resuspended and incubated for 10 min in 5 ml of tissue lysis buffer containing DTT and protease and phosphatase inhibitors. The subsequent steps to isolate the cross-linked chromatin were performed according to the manufacturer's protocol.
The cross-linked chromatin from each sample was apportioned into four equal parts. One quarter of the cross-linked chromatin was set aside as “input.” One quarter of the cross-linked chromatin from each sample was incubated with 5 μg of anti-ERα mouse antibody (Cell Signaling, Boston, Mass.) and 5 μg of anti-ERβ rabbit antibody (Upstate, Bedford, Mass.), or 5 μg of anti-LXRα rabbit antibody (Abcam, Cambridge, Mass.) and 5 μg of anti-LXRβ mouse antibody (Abcam, Cambridge, Mass.), while the remaining one quarter of the cross-linked chromatin from each sample was incubated with 5 μg of normal Rabbit IgG to serve as negative control.
The cross-linked chromatin samples were incubated overnight at 4° C. with their respective antibodies. The DNA-protein complexes were collected with Protein G agarose beads and washed to remove non-specific antibody binding. The DNA from the DNA-protein complexes from all the samples including the input and negative control was reverse cross-linked by incubation with 2 μL of Proteinase K for 2 hours at 65° C.
The crude DNA extract was eluted and then washed several times with wash buffer containing ethanol (provided with the kit) followed by purification with the use of DNA spin columns provided by the manufacturer. The pure DNA was eluted out of the DNA spin columns using 50 μL of the DNA elution buffer provided in the kit. 1 μL of the purified DNA was used for DNA concentration analysis using the “Quant-iT™ dsDNA Assay kit” from Invitrogen (Carlsbad, Calif.). The DNA fragment size was determined by electrophoresis on a 1.2% agarose FlashGel^R system (Lonza, Rockland, Me.).
The relative abundance of the ERα or ERβ antibody precipitated chromatin containing the ERE in the TH promoter region and LXRα or LXRβ antibody precipitated chromatin containing the LXRE in the α-synuclein promoter region was determined by qPCR using an iQ SYBR Green Supermix kit following the manufacturer's instructions (BioRad, Hercules, Calif.) and sequence specific primers (See Table 1 above). […] The fold enrichment of the ERE in the TH promoter region and LXRE in the α-synuclein promoter region was calculated using the ΔΔCt method (K. J. Livak et al., Methods, 25, 402 (2001)) which normalizes ChIP Ct values of each sample to the % input and background.

LXRβ [2] = target: T1, LXRβ; experiment: Western blot of LXRβ levels in the nucleus, SH-SY5Y cells; assay type: cell-based; parameters: endogenous in cells; host or cells: SH-SY5Y human neuroblastoma cells; settings: for LXRβ protein levels in the nucleus: 24 h, treatment alone vs control
Description: as §1
Treated SH-SY5Y cells were washed with PBS and trypsinized to collect the cells and centrifuged at 5000 g. The pellet was washed again with PBS and homogenized in NE-PER tissue protein extraction reagent (Thermo Scientific, Rockford, Ill.) supplemented with protease and phosphatase inhibitors. Protein concentrations from the cytosolic and nuclear homogenates were determined with BCA protein assay.
Proteins (10 μg) were separated on SDS-PAGE gels, transferred to a polyvinylidene difluoride membrane (BioRad, Hercules, Calif.), and incubated with the following monoclonal antibodies: anti-TH mouse antibody (1:1000; Sigma Aldrich, Saint Louis, Mo.), anti-α-synuclein mouse antibody (1:500; Chemicon, Temecula, Calif.), anti-ERα rabbit antibody (1:500; Abcam, Cambridge, Mass.), anti-ERβ rabbit antibody (1:200; Upstate, Lake Placid, N.Y.), anti-LXRα rabbit antibody (1:500; Abcam, Cambridge, Mass.), anti-LXRβ mouse antibody (1:500; Abcam, Cambridge, Mass.).
β-actin and Lamin A were used as a gel loading control for cytosolic homogenates and nuclear homogenates respectively. The blots were developed with enhanced chemiluminescence (Immmun-star HRP chemiluminescent kit, Bio-Rad, Hercules, Calif.). Bands were visualized on a polyvinylidene difluoride membrane and analyzed by LabWorks 4.5 software on a UVP Bioimaging System (Upland, Calif.). Quantification of results was performed by densitometry and the results analyzed as total integrated densitometric values (arbitrary units).

Row | SMILES | increase of LXRβ binding to the LXRE in the α-synuclein promoter (LXRβ [1]; treatment alone vs control) [fold] | LXRβ protein levels in the nucleus (LXRβ [2]) | 27-OHC-induced increase in LXRβ binding to the LXRE (LXRβ [1]; co-treatment with 27-OHC) | decrease in LXRβ binding to the LXRE on the α-synuclein promoter (LXRβ [1]; treatment alone vs control) [fold] | 27-OHC-induced increase in LXRβ in the nucleus (LXRβ [2]; co-treatment with 10 μM 27-OHC) | increase of LXRβ binding to the LXRE on the α-synuclein promoter (LXRβ [1]; in combination with 27-OHC) [fold]
1 | C[C@@H](CO)CCC[C@@H](C)[C@H]1CC[C@H]2[C@@H]3CC=C4C[C@@H](O)CC[C@]4(C)[C@H]3CC[C@]12C [27-OHC, 27-hydroxycholesterol] | ~3 | increases |  |  |  | 
2 | CC(C)CCC[C@@H](C)[C@H]1CC[C@H]2[C@@H]3C[C@@H]4O[C@@]45C[C@@H](OS(=O)(=O)O)CC[C@]5(C)[C@H]3CC[C@]12C [ECHS, 5α,6α-epoxycholesterol-3-sulfate] |  | reduced | significantly reversed | ~2.8 | significantly attenuated | 
3 | Cl.O=C(O)Cc1cccc(OCCCN(Cc2cccc(C(F)(F)F)c2Cl)CC(c2ccccc2)c2ccccc2)c1 [GW3965, 3-[3-[N-(2-Chloro-3-trifluoromethylbenzyl)-(2,2-diphenylethyl)amino]propyloxy]phenylacetic acid hydrochloride] | 3.5 | more pronounced increase |  |  |  | 4
